18 compounds from patent publication US7935815B2, “Imidazoyl pyridine compounds and salts thereof” (Eisai R&D Management Co., Ltd., priority 2007, dated 2011) can be followed below.

In this assay the test system is Aβ42 production. As to the kind of experiment: Quantification of Aβ peptide in culture of neurons from rat fetus brain (Aβ ELISA). It is filed as cell-based. Conditions: Rattus norvegicus, Neuron, 72 h, rat primary neuronal culture (embryonic day 18 Wistar rat cerebral cortex); cultured three days after addition of compound; Aβx-42 ELISA of the medium; read-out: Aβ42 production reducing effect IC50. How it is done:
Quantification of Aβ Peptide in Culture of Neurons from Rat Fetus Brain
(1) Rat Primary Neuronal Culture
Primary neuronal cultures were prepared from the cerebral cortex of embryonic day 18 Wistar rats (Charles River Japan, Yokohama, Japan). Specifically, the embryos were aseptically removed from pregnant rats under ether anesthesia. The brain was isolated from the embryo and immersed in an ice-cold L-15 medium (Invitrogen Corp. Cat #11415-064, Carlsbad, Calif., USA, or SIGMA L1518, for example). The cerebral cortex was collected from the isolated brain under a stereoscopic microscope. The cerebral cortex fragments collected were enzymatically treated in an enzyme solution containing 0.25% trypsin (Invitrogen Corp. Cat #15050-065, Carlsbad, Calif., USA) and 0.01% DNase (Sigma D5025, St. Louis, Mo., USA) at 37° C. for 30 minutes to disperse the cells. Here, the enzymatic reaction was stopped by adding inactivated horse serum to the solution. The enzymatically treated solution was centrifuged at 1,500 rpm for five minutes to remove the supernatant. 5 to 10 ml of a medium was added to the resulting cell mass. Neurobasal medium (Invitrogen Corp. Cat #21103-049, Carlsbad, Calif., USA) supplemented with 2% B27 supplement (Invitrogen Corp. Cat #17504-044, Carlsbad, Calif., USA), 25 μM 2-mercaptoethanol (2-ME, WAKO Cat #139-06861, Osaka, Japan), 0.5 mM L-glutamine (Invitrogen Corp. Cat #25030-081, Carlsbad, Calif., USA), and Antibiotics-Antimycotics (Invitrogen Corp. Cat #15240-062, Carlsbad, Calif., USA) was used as the medium (Neurobasal/B27/2-ME). However, the above Neurobasal medium not supplemented with 2-ME (Neurobasal/B27) was used for the assay. The cells were redispersed by mild pipetting of the cell mass to which the medium was added. The cell dispersion was filtered through a 40-μm nylon mesh (Cell Strainer, Cat #35-2340, Becton Dickinson Labware, Franklin Lakes, N.J., USA) to remove the remaining cell mass, and thus a neuronal cell suspension was obtained. The neuronal cell suspension was diluted with the medium and then plated in a volume of 100 μl/well at an initial cell density of 5×10^5 cells/cm^2 in a 96-well polystyrene culture plate pre-coated with poly-L or D-lysine (Falcon Cat #35-3075, Becton Dickinson Labware, Franklin Lakes, N.J., USA coated with poly-L-lysine using the method shown below, or BIOCOAT™ cell environments Poly-D-lysine cell ware 96-well plate, Cat #35-6461, Becton Dickinson Labware, Franklin Lakes, N.J., USA). Poly-L-lysine coating was carried out as follows. 100 μg/ml of a poly-L-lysine (SIGMA P2636, St. Louis, Mo., USA) solution was aseptically prepared with a 0.15 M borate buffer (pH 8.5). 100 μl/well of the solution was added to the 96-well polystyrene culture plate and incubated at room temperature for one or more hours or at 4° C. overnight or longer. The coated 96-well polystyrene culture plate was washed with sterile water four or more times, and then dried or rinsed with, for example, sterile PBS or medium, and used for cell plating. The plated cells were cultured in the culture plate at 37° C. in 5% CO2-95% air for one day. Then, the total amount of the medium was replaced with a fresh Neurobasal™/B27/2-ME medium, and then the cells were cultured for further three days.
The drug was added to the culture plate on Day 4 of culture as follows. The total amount of the medium was removed from the wells, and 180 μl/well of Neurobasal medium not containing 2-ME and containing 2% B-27 (Neurobasal/B27) was added thereto. A solution of the test compound in dimethyl sulfoxide (hereinafter abbreviated as DMSO) was diluted with Neurobasal/B27 at 10-fold of the final concentration. 20 μl/well of the dilution was added to and sufficiently mixed with the medium. The final DMSO concentration was 1% or less. Only DMSO was added to the control group.
The cells were cultured for three days after addition of the compound, and the total amount of the medium was collected. […]
For the compound `COc1cc(/C=C/c2nc3n(n2)CCCC3c2ccc(Br)cc2)ccc1-n1cnc(C)c1` (single isomer, unassigned; (-)) [Example 20, (−)-8-(4-bromophenyl)-2-{(E)-2-[3-methoxy-4-(4-methyl-1H-imidazol-1-yl)phenyl]vinyl}-5,6,7,8-tetrahydro-[1,2,4]triazolo[1,5-a]pyridine], the IC50 turned out to be 30 nM.

In the case of `COCc1ccccc1C1CCCn2nc(/C=C/c3ccc(-n4cnc(C)c4)c(OC)c3)nc21` (single isomer, unassigned; (-)) [Example 22, (−)-2-{(E)-2-[3-methoxy-4-(4-methyl-1H-imidazol-1-yl)phenyl]vinyl}-8-(2-methoxymethylphenyl)-5,6,7,8-tetrahydro-[1,2,4]triazolo[1,5-a]pyridine], the half-maximal inhibitory concentration (IC50) came out at 25 nM. Take `COCc1cc(F)ccc1C1CCCn2nc(/C=C/c3ccc(-n4cnc(C)c4)c(OC)c3)nc21` (single isomer, unassigned; (-)) [Example 24, (−)-8-(4-fluoro-2-methoxymethylphenyl)-2-{(E)-2-[3-methoxy-4-(4-methyl-1H-imidazol-1-yl)phenyl]vinyl}-5,6,7,8-tetrahydro-[1,2,4]triazolo[1,5-a]pyridine]: the IC50 is 12 nM. In the case of `COc1nc(/C=C/c2nc3n(n2)CCCC3c2ccccc2OC(F)(F)F)ccc1-n1cnc(C)c1` (single isomer, unassigned; (-)) [Example 283, (−)-8-(2-trifluoromethoxyphenyl)-2-{(E)-2-[6-methoxy-5-(4-methyl-1H-imidazol-1-yl)pyridin-2-yl]vinyl}-5,6,7,8-tetrahydro-[1,2,4]triazolo[1,5-a]pyridine], the IC50 stood at 27 nM. For the compound `COc1nc(/C=C/c2nc3n(n2)CCCC3c2ccc(F)cc2C(F)(F)F)ccc1-n1cnc(C)c1` (single isomer, unassigned; (-)) [Example 286, (−)-8-(2-trifluoromethyl-4-fluorophenyl)-2-{(E)-2-[6-methoxy-5-(4-methyl-1H-imidazol-1-yl)pyridin-2-yl]vinyl}-5,6,7,8-tetrahydro-[1,2,4]triazolo[1,5-a]pyridine], the IC50 amounted to 8 nM. With `COc1nc(/C=C/c2nc3n(n2)CCCC3c2ccccc2Br)ccc1-n1cnc(C)c1` (single isomer, unassigned; (-)) [Example 290, (−)-8-(2-bromophenyl)-2-{(E)-2-[6-methoxy-5-(4-methyl-1H-imidazol-1-yl)pyridin-2-yl]vinyl}-5,6,7,8-tetrahydro-[1,2,4]triazolo[1,5-a]pyridine], the IC50 worked out at 16 nM. As to `COc1cc(/C=C/c2nc3n(n2)CCCC3c2ccccc2C(F)(F)F)ccc1-n1cnc(C)c1` (single isomer, unassigned; (-)) [Example 311, (−)-2-{(E)-2-[3-methoxy-4-(4-methyl-1H-imidazol-1-yl)phenyl]vinyl}-8-(2-trifluoromethylphenyl)-5,6,7,8-tetrahydro-[1,2,4]triazolo[1,5-a]pyridine], the IC50 amounted to 11 nM. The same measure for `COc1cc(/C=C/c2nc3n(n2)CCC3c2ccccc2C(F)(F)F)ccc1-n1cnc(C)c1` (single isomer, unassigned; (-)) [Example 317, (−)-2-{(E)-2-[3-methoxy-4-(4-methyl-1H-imidazol-1-yl)phenyl]vinyl}-7-(2-trifluoromethylphenyl)-6,7-dihydro-5H-pyrrolo[1,2-b][1,2,4]triazole]: 25 nM; for `COc1nc(/C=C/c2nc3n(n2)CCCC3c2ccccc2C)ccc1-n1cnc(C)c1` (single isomer, unassigned; (-)) [Example 319, (−)-2-{(E)-2-[6-methoxy-5-(4-methyl-1H-imidazol-1-yl)pyridin-2-yl]vinyl}-8-(o-tolyl)-5,6,7,8-tetrahydro[1,2,4]triazolo[1,5-a]pyridine]: 15 nM; for `COc1nc(/C=C/c2nc3n(n2)CCCC3c2cccc(C(F)(F)F)c2)ccc1-n1cnc(C)c1` (single isomer, unassigned; (-)) [Example 321, (−)-2-{(E)-2-[6-methoxy-5-(4-methyl-1H-imidazol-1-yl)pyridin-2-yl]vinyl}-8-(3-trifluoromethylphenyl)-5,6,7,8-tetrahydro[1,2,4]triazolo[1,5-a]pyridine]: 23 nM. On to `COc1nc(/C=C/c2nc3n(n2)CCCC3c2ccccc2F)ccc1-n1cnc(C)c1` (single isomer, unassigned; (-)) [Example 327, (−)-8-(2-fluorophenyl)-2-{(E)-2-[6-methoxy-5-(4-methyl-1H-imidazol-1-yl)pyridin-2-yl]vinyl}-5,6,7,8-tetrahydro-[1,2,4]triazolo[1,5-a]pyridine], for which the IC50 was 20 nM. `COc1nc(/C=C/c2nc3n(n2)CCCC3c2cc(F)ccc2C(F)(F)F)ccc1-n1cnc(C)c1` (single isomer, unassigned; (-)) [Example 329, (−)-8-(5-fluoro-2-trifluoromethylphenyl)-2-{(E)-2-[6-methoxy-5-(4-methyl-1H-imidazol-1-yl)pyridin-2-yl]vinyl}-5,6,7,8-tetrahydro-[1,2,4]triazolo[1,5-a]pyridine]: the 50% inhibitory concentration (IC50) worked out at 17 nM. On to `COc1nc(/C=C/c2nc3n(n2)CCCC3c2c(F)cccc2C(F)(F)F)ccc1-n1cnc(C)c1` (single isomer, unassigned; (-)) [Example 331, (−)-8-(6-fluoro-2-trifluoromethylphenyl)-2-{(E)-2-[6-methoxy-5-(4-methyl-1H-imidazol-1-yl)pyridin-2-yl]vinyl}-5,6,7,8-tetrahydro-[1,2,4]triazolo[1,5-a]pyridine], for which the IC50 is 22 nM.

For `COc1nc(/C=C/c2nc3n(n2)CCCC3c2cccc(F)c2C)ccc1-n1cnc(C)c1` (single isomer, unassigned; (-)) [Example 333, (−)-8-(3-fluoro-2-methylphenyl)-2-{(E)-2-[6-methoxy-5-(4-methyl-1H-imidazol-1-yl)pyridin-2-yl]vinyl}-5,6,7,8-tetrahydro-[1,2,4]triazolo[1,5-a]pyridine], the IC50 amounted to 10 nM. The same measure for `COc1nc(/C=C/c2nc3n(n2)CCCC3c2cc(F)cc(F)c2)ccc1-n1cnc(C)c1` (single isomer, unassigned; (-)) [Example 337, (−)-8-(3,5-difluorophenyl)-2-{(E)-2-[6-methoxy-5-(4-methyl-1H-imidazol-1-yl)pyridin-2-yl]vinyl}-5,6,7,8-tetrahydro[1,2,4]triazolo[1,5-a]pyridine]: 13 nM; for `Cc1cn(-c2ccc(/C=C/c3nc4n(n3)CCCC4c3ccccc3C(F)(F)F)nc2OCC(F)F)cn1` (single isomer, unassigned; (-)) [Example 354, (−)-2-{(E)-2-[5-(4-methyl-1H-imidazol-1-yl)-6-(2,2-difluoroethoxy)pyridin-2-yl]vinyl}-8-(2-trifluoromethylphenyl)-5,6,7,8-tetrahydro-[1,2,4]triazolo[1,5-a]pyridine]: 37 nM.

For `COc1cc(/C=C/c2nc3n(n2)CCC/C3=C\c2ccccc2)ccc1-n1cnc(C)c1` [Example 12, 2-{(E)-2-[3-methoxy-4-(4-methyl-1H-imidazol-1-yl)phenyl]vinyl}-8-[1-phenylmethy-(E)-lidene]-5,6,7,8-tetrahydro[1,2,4]triazolo[1,5-a]pyridine], the IC50 came out at 135 nM. In the case of `COc1cc(/C=C/c2nc3n(n2)C[C@H](C)C[C@@H]3c2ccc(F)cc2)ccc1-n1cnc(C)c1` [Example 97, (6R,8R)-8-(4-fluorophenyl)-2-{(E)-2-[3-methoxy-4-(4-methyl-1H-imidazol-1-yl)phenyl]vinyl}-6-methyl-5,6,7,8-tetrahydro-[1,2,4]triazolo[1,5-a]pyridine], the IC50 amounted to 38 nM.
